The values below come from patent US6365590B1, “Compounds, compositions and methods for treating erectile dysfunction” (Saint Louis University, priority 1998, dated 2002).

Data set [1] in a line: pH of a 10 mM aqueous solution of the compound. Particulars: 22° C. The data set is classed as physicochemical.
For another data set, the system named is sperm. Particulars: cited from earlier work.
For data set [2] the following is noted: concentrations up to 20%; cited from earlier work.

Where a name gives a salt, the structure may show the parent alone.

For `CCCCC[C@H](O)/C=C/[C@H]1[C@H](O)CC(=O)[C@@H]1CCCCCCC(=O)O.CCN(CC)CC(=O)Nc1c(C)cccc1C` [lidocaine alprostadilate], the “pH of a 10 mM aqueous solution” value in data set [1] was 6.29-6.36. As for `COc1cc2nc(N3CCN(C(=O)c4ccco4)CC3)nc(N)c2cc1OC` [prazosin hydrochloride], the “effect on the viability of sperm” value in the data set with sperm is “no effect”. As to `COc1ccc(Cc2nccc3cc(OC)c(OC)cc23)cc1OC` [papaverine], the “effectiveness as a topical agent in erectile dysfunction” value in data set [2] is listed as “not sufficiently effective for clinical use”. As for `CCCCCC(O)C=CC1C(O)CC(=O)C1CCCCCCC(=O)O.COc1cc2nc(N3CCN(C(=O)c4ccco4)CC3)nc(N)c2cc1OC` [prazosin alprostadilate], in data set [1], the “pH of a 10 mM aqueous solution” value is listed as 6.32-6.38. For the compound `CCCCC[C@H](O)/C=C/[C@H]1[C@H](O)CC(=O)[C@@H]1CCCCCCC(=O)O` [alprostadil], the “effect on the viability of sperm” value in the data set on sperm is “no effect”.
